Results published in publication PMC4059180 (Journal of medicinal chemistry, 2013).

Columns and labels:
cells = cells in vitro and in vivo; cited from earlier work
[1] = system: mFAP transfected HEK293 cells; assay: CellTiter-Blue cell viability assay; format: cell-based; details: 48 h
FAP = biological target: T1, FAP (Homo sapiens, UniProt Q12884); assay: Enzyme kinetics; format: biochemical; details: highest concentrations tested
T1 sequence (Q12884 1-760): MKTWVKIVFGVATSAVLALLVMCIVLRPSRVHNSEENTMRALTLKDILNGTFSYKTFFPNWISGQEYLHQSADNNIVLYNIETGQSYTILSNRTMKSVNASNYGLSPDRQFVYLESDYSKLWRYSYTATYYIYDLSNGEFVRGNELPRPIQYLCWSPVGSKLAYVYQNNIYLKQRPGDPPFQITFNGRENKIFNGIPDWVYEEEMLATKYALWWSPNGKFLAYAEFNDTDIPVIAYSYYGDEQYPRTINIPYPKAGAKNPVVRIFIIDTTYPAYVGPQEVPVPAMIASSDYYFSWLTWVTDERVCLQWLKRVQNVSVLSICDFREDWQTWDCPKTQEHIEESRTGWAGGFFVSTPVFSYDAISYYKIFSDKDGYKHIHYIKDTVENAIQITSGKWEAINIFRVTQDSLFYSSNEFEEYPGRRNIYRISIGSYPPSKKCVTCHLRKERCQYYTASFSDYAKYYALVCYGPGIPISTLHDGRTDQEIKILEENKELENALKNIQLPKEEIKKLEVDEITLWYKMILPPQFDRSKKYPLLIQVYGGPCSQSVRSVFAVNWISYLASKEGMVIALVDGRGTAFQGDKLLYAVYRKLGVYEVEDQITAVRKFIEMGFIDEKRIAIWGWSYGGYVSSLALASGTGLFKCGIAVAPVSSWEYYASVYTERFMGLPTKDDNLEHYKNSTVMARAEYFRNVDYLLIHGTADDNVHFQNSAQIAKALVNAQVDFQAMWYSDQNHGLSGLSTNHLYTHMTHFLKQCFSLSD

tumor growth = details: mice inoculated with those same cells; cited from earlier work
several tumor cell lines = details: cited from earlier work

In the case of `CC(C)C[C@H](NC(=O)[C@H](Cc1ccccc1)NC(=O)c1cnccn1)B(O)O` [bortezomib, Bortezomib], the cytotoxicity (cells) is listed as “cytotoxic”.

With `C[C@@H](NC(=O)c1ccncc1)C(=O)N1CCC[C@H]1B(O)O` [Compound 6, N-(Pyridine-4-carbonyl)-(R)-alaninyl-(R)-boroproline] the cytotoxicity [1] was “No cytotoxicity was observed”.

For `CC(C)[C@H](NC(=O)c1cccnc1)C(=O)N1CCC[C@H]1B(O)O` [Compound 22, N-(Pyridine-3-carbonyl)-(R)-valinyl-(R)-boroproline], the “inhibition of FAP in kinetic analysis” value (FAP) was “does not inhibit FAP at the highest concentrations tested”.

In the case of `CC(C)[C@H](N)C(=O)N1CCC[C@H]1B(O)O` [Compound 20, (S)-Valinyl-(R)-boroproline], the “tumor growth in vivo” value (tumor growth) is listed as “attenuating tumor growth in vivo” and the cytotoxicity (several tumor cell lines) is listed as “lack cytotoxicity against several tumor cell lines”.
